Assays:
[1] = Saturation solubility in key solvents for dermal drug delivery; type: physicochemical
Experimental: A liquid's capability to solubilize LAC-34 was screened by adding a known mass of LAC-34 to a known volume/mass of liquid. Saturation solubility was measured by adding an excess of drug substance and allowing the suspension to equilibrate while stirring for 2-3 days. A sample of the suspension was filtered though a 0.2 μm PTFE membrane followed by dilution (if required) and HPLC analysis. For several mixed solvent systems that included water, a known mass of drug substance was dissolved in a known mass of solvent(s). This solution was then titrated with water while stirring until the solution became cloudy.
HPLC analysis was performed with a HP 1050 system (He degasser, quaternary pump, auto-injector, and variable wavelength detector). The column heater was manufactured by Waters. Data collection and analysis was performed using Chemstation® software.
The saturation solubility of LAC-34 was measured in capric/caprylic triglycerides (CCT), dimethylsulfoxide (DMSO), ethanol, isopropanol, isopropyl myristate (IPM), pentane, propylene glycol (PG), and water. […]
All of the solvents, with the exception of water, were able to dissolve large quantities of LAC-34. […] Propylene glycol (PG), which has multiple actions for dermal drug delivery (see Table 1), was also able to solubilize significant quantities of LAC-34. […]

[2] = system: animal models of neuropathic pain; test: Animal models of neuropathic pain; type: in vivo; details: potentiated by addition of capsaicin
[3] = Local vasodilatation at the dermal injection site; type: in vivo; details: contrary to lidocaine
[4] = Solubility in ternary solvent mixture with water as anti-solvent; type: physicochemical; details: 150 mg LAC-34 free base; 1 ml polyethylene glycol + 1 ml ethanol + 0.6 ml water
[5] = system: Na+ channel (site 2) in the rat cerebral cortex; details: 10 nM [3H]batrachotoxin, 60 min at 22° C., rat cerebral cortex membranes; read-out: IC50-values for inhibition of batrachotoxinin binding
[6] = Physical state of LAC-34 solutions at 4° C.; type: physicochemical; details: 20% LAC-34 in benzyl alcohol
[7] = system: guinea pigs; test: Dermal anesthetic activity after dermal application, pinprick method (algesimeter); type: in vivo, guinea pig; details: highest score over time after patch removal, 5.0% solution
Experimental: The purpose of this study was to determine the degree to which various salt forms of LAC-34 contribute to the local dermal anesthetic effect of the compound, following dermal application to guinea pigs.
Four groups of six male guinea pigs received a dose of 2.0 ml of a 5.0% solution of four test articles (LAC-34 base, LAC-34 mono-HCl, LAC-34-di HCl and LAC-34 mesylate) that had been applied onto a two inch square, 4 layer thick gauze pad on depilated dosal skin of each guinea pig. Similarly, one group of guinea pigs received the vehicle, which consisted of DMSO/water (90 percent/10 percent, v/v) and served as the control group. The gauze was occluded and the guinea pigs were wrapped for 30 min. Animals were assessed for initial pain reaction (anesthetic depth) at 15 minute intervals up to 3 hours and at 24 hours. An algesimeter, set at 10 g, was employed to assess the onset and depth of anesthesia using the pinprick method causing a twitch response or non-response. The “Average Anesthetic Score” was defined as number of probings not producing a dermal twitch response. Thus, a situation where there were no dermal twitch responses to six probings represent a maximal anesthetic effect and is denoted as an Average Anesthetic Score of 6.

c1ccc(N(CCC2CCCCN2)C2Cc3ccccc3C2)cc1 (racemic) [LAC-34, 2-[2-(N-Phenyl-N-2-indanyl)aminoethyl]piperidine]
Solubility in isopropanol ([1]; 0.25 g LAC-34 solubilized once isopropanol level was 0.225 g): approximately 526 mg/mL | LAC-34 Solubility (saturation) ([1]; solvent as printed on the line: Propylene glycol (PG)): 5 µg/mL | Analgesic activity [2]: exerts analgesic activity | Local vasodilatation at the dermal injection site [3]: not to cause local vasodilatation | Solubility in ternary solvent mixture [4]: 5.5 % (w/w) | IC50 [5]: 270 nM | Physical state at 4° C. [6]: still a solution | Maximal depth of anesthesia (Average Anesthetic Score) [7]: 4.8

— patent publication US20090137628A1, “Formulations of Indanylamines and the Use Thereof as Local Anesthetics and as Medication for Chronic Pain” (BRIDGE PHARMA, INC., priority 2005, published 2009)
